*: point of attachment. Hexanoyl(6-maleimido) = O=C1C=CC(=O)N1CCCCCC(=O)*
How the values were obtained:
CWR22 tissue homogenate = experiment: Cleavage study of the doxorubicin dipeptide with CWR22 tissue homogenate (HPLC); type: in vitro ADME; conditions: pH 7.4, 37° C., anthracycline 100 μM, 5 minutes, 6 hours, 20 hours, FIG. 2
Protocol: FIG. 2 is chromatogram of a cleavage study of the doxorubicin-dipeptide Doxo-Arg-Ser with PSA-positive prostate carcinoma CWR22. Chromatogram of an incubation study of the cleaved doxorubicin-dipeptide [Doxo-Arg-Ser] with CWR22 homogenate recorded at 37° C. after 0 hours, 6 hours, and 20 hours. The concentration of anthracycline was […]. HPLC conditions: see FIG. 1. The CWR22 homogenate (250 mg/l mL) was produced by homogenization of CWR22 xenograft tumors in 50 mM tris-HCl buffer at pH 7.4 containing 1 mM monothioglycerol.
An incubation study at 37° C. with CWR22 tissue homogenate at pH 7.4 was conducted with the doxorubicin dipeptide (Doxo-Arg-Ser) obtained as described in Example 2. The concentration of anthracycline was 100 μM. HPLC chromatography was conducted under the conditions of Example 2 after 5 minutes, 6 hours, and 20 hours.

[1] = target: T1, cysteine-34 position of endogenous albumin (Homo sapiens, UniProt P02768); experiment: Incubation study with human plasma (binding to albumin, HPLC); conditions: 37° C., 100 μM, after 5 and 90 minutes, FIG. 4
T1 construct: cysteine-34 position of endogenous albumin in blood plasma; from tissue; host or cells: human blood plasma
Protocol: FIG. 4 is chromatogram of an incubation study of compound 3 with human plasma at 37° C. after 5 and 90 minutes. Chromatogram of an incubation study of compound 3 with human plasma at 37° C. after 5 and 90 minutes. The concentration of the anthracycline was 100 μM. HPLC chromatography conditions: see FIG. 3.

[2] = system: PSA-positive xenograft model CWR22; experiment: In-vivo activity in the PSA-positive xenograft model (CWR22); parameters: species or system hairless mice
Protocol: The course of the tumor growth of the subcutaneously growing PSA-positive xenograft model CWR22, which was treated with structure 3 [dose (i.v.): 2×13.3 μmol/kg (=2×8 mg/kg doxorubicin equivalents) on days 13 and 20; 3×39.9 μmol/kg (=3×24 mg/kg doxorubicin equivalents) on days 13, 20, and 27; and 3×59.9 μmol/kg (=3×36 mg/kg doxorubicin equivalents) on days 13, 20, and 27] is shown in FIG. 6.
Animals: hairless mice. Stock solution of compound 3:6.0 mg/mL in 10 mM sodium phosphate, 5% D-glucose (pH 6.4); control (buffer): glucose-phosphate buffer (10 mM sodium phosphate, 5% D-glucose—pH 6.4) on days 13 and 20.
The course of the tumor growth of the subcutaneously growing PSA-positive xenograft model CWR22, which was treated with structure 1 [dose (i.v.): 2×13.3 μmol/kg (=2×8 mg/kg doxorubicin equivalents) on days 13 and 20; 3×26.3 μmol/kg (=3×16 mg/kg doxorubicin equivalents) or with buffer (control) on days 13 and 20], is shown in FIG. 7.
Animals: hairless mice. Stock solution of compound 1:7.4 mg/mL in 10 mM sodium phosphate, 5% D-glucose (pH 6.4); control (buffer): glucose-phosphate buffer (10 mM sodium phosphate, 5% D-glucose—pH 6.4) on days 13 and 20.

Row | cleavage in tumor tissue homogenate (CWR22 tissue homogenate) | Substance | binding to albumin in blood plasma [1] | antitumoral effect (relative tumor volume) ([2]; i.v. 2×13.3 μmol/kg on days 13 and 20, 3×26.3 μmol/kg, subcutaneous CWR22, FIG. 7) | antitumoral effect (relative tumor volume) ([2]; i.v. 2×13.3, 3×39.9 and 3×59.9 μmol/kg on days 13, 20 (27), subcutaneous CWR22, FIG. 6)
1 | cleaved to doxorubicin in tumor tissue | Doxo-Arg-Ser | – | – | –
2 | – | EMC-Arg-Arg-Ser-Ser-Tyr-Tyr-Ser-Gly-Doxo ({Hexanoyl(6-maleimido)}-RRSSYYSG-doxorubicin) [compound 3] | binds selectively within a few minutes | good antitumoral effect | good antitumoral effect
